Source: patent US6362369B1, “Phthalic acid diamide derivatives fluorine-containing aniline compounds as starting material, agricultural and horticultural insecticides, and a method for application of the insecticides” (Nihon Nohyaku Co., Ltd., priority 1997, dated 2002)

Columns and labels:
Assay type in all cases: in vivo
[1] = tested on: common cutworm (Spodoptera Litura); test: Insecticidal effect on common cutworm (Test Example 2); conditions: 500 ppm, 25° C.; for Insecticidal effect (Test Example 2), judged from mortality / Insecticidal effect on common cutworm (Test Example 2), judged grade: cabbage leaf dip; for Insecticidal effect (Test Example 2), judged from mortality: 8 days after inoculation; for Insecticidal effect, Test Example 2: cabbage leaf immersed; for Insecticidal effect, Test Example 2 / Insecticidal effect on common cutworm (Test Example 2), judged grade: eight days after inoculation; for Insecticidal effect on common cutworm (Test Example 2), judged grade: second-instar larvae
Procedure, shortened: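 Insecticidal effect was rated from percent mortality of second-instar larvae exposed to air-dried treatment at 25° C for 8 days.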

[2] = tested on: rice leafroller (Cnaphalocrocis medinalis); test: Insecticidal effect on rice leafroller (Test Example 3); conditions: 500 ppm, 25° C., humidity 70%; for Insecticidal effect (Test Example 3), judged from mortality / Insecticidal effect on rice leafroller (Test Example 3), judged grade: rice lamina dip; for Insecticidal effect (Test Example 3), judged from mortality: 4 days after inoculation; for Insecticidal effect, Test Example 3: rice lamina immersed; for Insecticidal effect, Test Example 3 / Insecticidal effect on rice leafroller (Test Example 3), judged grade: four days after inoculation; for Insecticidal effect on rice leafroller (Test Example 3), judged grade: third-instar larvae
Procedure, shortened: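 Insecticidal effect is judged by a predefined criterion from dead/alive counts four days after infesting air-dried lamina with third-instar larvae, kept on moistened filter paper at 25° C, 70% humidity.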

[3] = tested on: diamondback moth (Plutella xylostella); test: Insecticidal effect on diamondback moth (Test Example 1); conditions: for Insecticidal effect (Test Example 1), judged from mortality / Insecticidal effect, Test Example 1: diamondback moth; for Insecticidal effect (Test Example 1), judged from mortality: judged by the criterion of Test Example 1; for Insecticidal effect on diamondback moth (Test Example 1), judged grade: mortality judged according to the criterion shown in Test Example 1
Procedure, shortened: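 Triplicate groups of 10 insects: eggs laid on Chinese cabbage seedling by adults, seedling immersed then air-dried, kept at 25° C. Day-6 hatch counts gave mortality, rated by criterion.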

[4] = second-instar larvae of common cutworm
[5] = third-instar larvae of rice leafroller
[6] = common cutworm second-instar larvae
[7] = rice leafroller third-instar larvae
[8] = mortality judged by criterion of Test Example 1
[9] = judged by the mortality criterion of Test Example 1

Cc1cc(C(F)(F)C(F)(F)F)ccc1NC(=O)c1cccc(Cl)c1C(=O)NCc1ccc(OC(F)(F)F)cc1 [compound 1576]
Insecticidal effect (Test Example 2), judged from mortality [1, 4]: D (79-50) | Insecticidal effect (Test Example 3), judged from mortality [2, 5]: A (100) | Insecticidal effect (Test Example 1), judged from mortality [3]: A (100)

Cc1cc(C(F)(F)C(F)(F)F)ccc1NC(=O)c1cccc(F)c1C(=O)NC(C)(C)C [compound 1505]
Insecticidal effect (Test Example 2), judged from mortality [1, 4]: A (100) | Insecticidal effect (Test Example 3), judged from mortality [2, 5]: A (100) | Insecticidal effect (Test Example 1), judged from mortality [3]: A (100)

Cc1cc(OC(F)F)ccc1NC(=O)c1cccc(I)c1C(=O)NC(C)(C)C [compound 1020]
Insecticidal effect, Test Example 2 [1, 6]: A (100) | Insecticidal effect, Test Example 3 [2, 7]: A (100) | Insecticidal effect, Test Example 1 [3, 8]: A (100)

Cc1cc(I)ccc1NC(=O)c1cccc(Cl)c1C(=O)NC(C)C [compound 122]
Insecticidal effect, Test Example 2 [1, 4]: A (100) | Insecticidal effect, Test Example 3 [2, 5]: A (100) | Insecticidal effect, Test Example 1 [3, 9]: A (100)

Cc1cc(OC(F)F)ccc1NC(=O)c1cccc(Cl)c1C(=O)NC1CC1 [compound 849]
Insecticidal effect on common cutworm (Test Example 2), judged grade [1]: B (99-90) | Insecticidal effect on rice leafroller (Test Example 3), judged grade [2]: A (100) | Insecticidal effect on diamondback moth (Test Example 1), judged grade [3]: A (100)

CC(C)NC(=O)c1c(F)cccc1C(=O)Nc1ccc(Oc2ccc(C(F)(F)F)cc2Cl)cc1F [compound 901]
Insecticidal effect on common cutworm (Test Example 2), judged grade [1]: D (79-50) | Insecticidal effect on rice leafroller (Test Example 3), judged grade [2]: A (100) | Insecticidal effect on diamondback moth (Test Example 1), judged grade [3]: A (100)

Cc1cc(C(F)(C(F)(F)F)C(F)(F)F)ccc1NC(=O)c1ccc(I)cc1C(=O)NC(C)C [compound 1250]
Insecticidal effect, Test Example 2 [1, 6]: A (100) | Insecticidal effect, Test Example 3 [2, 7]: A (100) | Insecticidal effect, Test Example 1 [3, 8]: A (100)

Cc1cc(C(F)(F)C(F)(F)F)ccc1NC(=O)c1cccc(Cl)c1C(=O)NC(C)(C)C#Cc1ccc(Cl)cc1Cl [compound 1571]
Insecticidal effect (Test Example 2), judged from mortality [1, 4]: A (100) | Insecticidal effect (Test Example 3), judged from mortality [2, 5]: A (100) | Insecticidal effect (Test Example 1), judged from mortality [3]: A (100)

CC(C)(C)NC(=O)c1c(I)cccc1C(=O)Nc1cc2c(cc1Cl)OC(F)(F)O2 [compound 1624]
Insecticidal effect (Test Example 2), judged from mortality [1, 4]: D (79-50) | Insecticidal effect (Test Example 3), judged from mortality [2, 5]: A (100) | Insecticidal effect (Test Example 1), judged from mortality [3]: A (100)

Cc1cc(C(F)(F)C(F)(F)C(F)(F)C(F)(F)F)ccc1NC(=O)c1cccc(Br)c1C(=O)NC(C)C [Compound No. 281, 3-bromo-N^1-(4-nonafluorobutyl-2-methylphenyl)-N^2-isopropyl-phthalic acid diamide]
Insecticidal effect, Test Example 2 [1, 4]: A (100) | Insecticidal effect, Test Example 3 [2, 5]: A (100) | Insecticidal effect, Test Example 1 [3, 9]: A (100)

Cc1cc(Oc2ccc(C(F)(F)F)cn2)ccc1NC(=O)c1cccc(I)c1C(=O)NC(C)C [compound 399]
Insecticidal effect, Test Example 2 [1, 4]: A (100) | Insecticidal effect, Test Example 3 [2, 5]: A (100) | Insecticidal effect, Test Example 1 [3, 9]: A (100)

Cc1cc(C(F)(F)C(F)(F)F)c(C)cc1NC(=O)c1cccc(I)c1C(=O)NC(C)(C)C [compound 1656]
Insecticidal effect (Test Example 2), judged from mortality [1, 4]: A (100) | Insecticidal effect (Test Example 3), judged from mortality [2, 5]: A (100)

Cc1cc(OC(F)(F)C(F)(Cl)Cl)ccc1NC(=O)c1c(I)cccc1C(=O)NC(C)C [compound 445]
Insecticidal effect on common cutworm (Test Example 2), judged grade [1]: B (99-90) | Insecticidal effect on rice leafroller (Test Example 3), judged grade [2]: A (100)

Cc1cc(OC(F)(F)C(F)(Cl)Cl)ccc1NC(=O)c1c(Cl)cccc1C(=O)NC(C)C [compound 228]
Insecticidal effect, Test Example 2 [1, 4]: B (99-90) | Insecticidal effect, Test Example 3 [2, 5]: A (100)

CC(C)NC(=O)c1cccc(Cl)c1C(=O)Nc1ccc(C(F)(C(F)(F)F)C(F)(F)F)cc1Cl [compound 231]
Insecticidal effect, Test Example 2 [1, 4]: B (99-90) | Insecticidal effect, Test Example 3 [2, 5]: A (100)

Cc1cc(OC(F)F)ccc1NC(=O)c1c(Cl)cccc1C(=O)NCc1ccccc1Cl [compound 1424]
Insecticidal effect, Test Example 2 [1, 6]: A (100) | Insecticidal effect, Test Example 3 [2, 7]: A (100)

Cc1ccc(NC(=O)c2cccc(Br)c2C(=O)NC(C)C)c(C)c1 [compound 264]
Insecticidal effect, Test Example 2 [1, 4]: D (79-50) | Insecticidal effect, Test Example 3 [2, 5]: A (100)

CC(C)NC(=O)c1c(C(=O)Nc2cccc(Cl)c2Cl)cccc1[N+](=O)[O-] [compound 584]
Insecticidal effect on common cutworm (Test Example 2), judged grade [1]: D (79-50) | Insecticidal effect on diamondback moth (Test Example 1), judged grade [3]: A (100)

Cc1cc(C(F)(C(F)(F)F)C(F)(F)F)ccc1NC(=O)c1cccc(I)c1C(=O)NC(C)(C)C [compound 1668]
Insecticidal effect (Test Example 2), judged from mortality [1, 4]: A (100) | Insecticidal effect (Test Example 1), judged from mortality [3]: A (100)

CC(C)NC(=O)c1ccccc1C(=O)Nc1ccc(F)c(F)c1 [compound 43]
Insecticidal effect, Test Example 2 [1, 4]: D (79-50) | Insecticidal effect, Test Example 1 [3, 9]: B (99-90)

CC(C)NC(=O)c1c(I)cccc1C(=O)Nc1ccc(C(F)(C(F)(F)F)C(F)(F)F)cc1F [compound 1669]
Insecticidal effect (Test Example 2), judged from mortality [1, 4]: A (100) | Insecticidal effect (Test Example 1), judged from mortality [3]: A (100)

CCN(CC)C(=O)c1ccccc1C(=O)Nc1ccc(C(F)(F)F)cc1 [compound 12]
Insecticidal effect, Test Example 2 [1, 4]: D (79-50) | Insecticidal effect, Test Example 1 [3, 9]: A (100)

Cc1cc([N+](=O)[O-])ccc1NC(=O)c1cccc([N+](=O)[O-])c1C(=O)NC(C)C [compound 706]
Insecticidal effect on common cutworm (Test Example 2), judged grade [1]: A (100) | Insecticidal effect on diamondback moth (Test Example 1), judged grade [3]: A (100)

Cc1ccc(Cl)cc1NC(=O)c1ccccc1C(=O)NC(C)(C)C [compound 841]
Insecticidal effect on common cutworm (Test Example 2), judged grade [1]: D (79-50) | Insecticidal effect on diamondback moth (Test Example 1), judged grade [3]: A (100)

O=C(Nc1ccc(C(F)(F)C(F)(F)F)cc1Cl)c1cccc(Cl)c1C(=O)NCc1ccccc1 [compound 1487]
Insecticidal effect (Test Example 2), judged from mortality [1, 4]: A (100) | Insecticidal effect (Test Example 1), judged from mortality [3]: A (100)

CC(C)NC(=O)c1c(C(=O)Nc2c(F)cccc2F)cccc1[N+](=O)[O-] [compound 641]
Insecticidal effect on common cutworm (Test Example 2), judged grade [1]: D (79-50) | Insecticidal effect on diamondback moth (Test Example 1), judged grade [3]: D (79-50)

CSc1cc(C(F)(C(F)(F)F)C(F)(F)F)ccc1NC(=O)c1cccc(I)c1C(=O)NC(C)(C)C [compound 1672]
Insecticidal effect (Test Example 2), judged from mortality [1, 4]: A (100) | Insecticidal effect (Test Example 1), judged from mortality [3]: A (100)

CC(C)NC(=O)c1c(I)cccc1C(=O)Nc1cc2c(cc1Br)OC(F)(F)C(F)O2 (stereo not drawn) [compound 1684]
Insecticidal effect (Test Example 2), judged from mortality [1, 4]: A (100) | Insecticidal effect (Test Example 1), judged from mortality [3]: A (100)

Cc1cc(OC(F)F)ccc1NC(=O)c1cc(Cl)ccc1C(=O)NC(C)C [compound 193]
Insecticidal effect, Test Example 2 [1, 4]: D (79-50) | Insecticidal effect, Test Example 1 [3, 9]: A (100)

Cc1cc(OCC(F)(F)C(F)F)ccc1NC(=O)c1cccc(Cl)c1C(=O)NC(C)C [compound 147]
Insecticidal effect, Test Example 2 [1, 4]: C (89-80) | Insecticidal effect, Test Example 1 [3, 9]: A (100)

Cc1cc(OC(F)(F)C(F)OC(F)(F)F)ccc1NC(=O)c1c(F)cccc1C(=O)NC(C)C (stereo not drawn) [compound 570]
Insecticidal effect on common cutworm (Test Example 2), judged grade [1]: A (100) | Insecticidal effect on diamondback moth (Test Example 1), judged grade [3]: A (100)

CC(C)NC(=O)c1c(I)cccc1C(=O)Nc1ccc(I)cc1C(C)C [compound 965]
Insecticidal effect, Test Example 2 [1, 6]: C (89-80) | Insecticidal effect, Test Example 1 [3, 8]: A (100)

Cc1cc(C(F)(F)C(F)(F)F)c(C)cc1NC(=O)c1cccc(I)c1C(=O)NC(C)C [compound 1610]
Insecticidal effect (Test Example 2), judged from mortality [1, 4]: A (100) | Insecticidal effect (Test Example 1), judged from mortality [3]: A (100)

O=C(Nc1ccc(C(F)(F)F)cc1)c1ccccc1C(=O)N1CCCC1 [compound 881]
Insecticidal effect on common cutworm (Test Example 2), judged grade [1]: D (79-50) | Insecticidal effect on diamondback moth (Test Example 1), judged grade [3]: A (100)

O=C(Nc1ccc(C(F)(F)C(F)(F)F)cc1F)c1cccc(Cl)c1C(=O)NCc1ccccc1 [compound 1486]
Insecticidal effect (Test Example 2), judged from mortality [1, 4]: A (100) | Insecticidal effect (Test Example 1), judged from mortality [3]: A (100)
